Where two headings read alike, the source gives them in different places.
Legend:
α2B receptor = biological target: T1, α2B receptor (Homo sapiens, UniProt P18089); assay: Competition binding, [3H]rauwolscine, human α2B receptor
T1 construct: host or cells: LM(tk-) cells, line L-NGC-α2B
T1 sequence (P18089 1-450): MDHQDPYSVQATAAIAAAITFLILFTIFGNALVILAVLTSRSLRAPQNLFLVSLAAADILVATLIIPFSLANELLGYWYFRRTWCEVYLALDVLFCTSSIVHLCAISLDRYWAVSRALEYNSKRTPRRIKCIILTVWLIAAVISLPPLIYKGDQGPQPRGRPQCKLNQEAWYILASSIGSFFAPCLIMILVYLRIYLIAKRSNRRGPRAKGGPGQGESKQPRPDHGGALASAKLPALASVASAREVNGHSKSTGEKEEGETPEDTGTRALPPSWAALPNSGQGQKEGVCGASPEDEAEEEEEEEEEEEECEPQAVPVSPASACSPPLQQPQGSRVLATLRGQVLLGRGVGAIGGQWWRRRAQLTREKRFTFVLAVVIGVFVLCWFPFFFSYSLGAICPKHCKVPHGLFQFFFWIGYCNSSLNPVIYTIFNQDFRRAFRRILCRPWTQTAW
Summary of the method: (§1)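 Filter-bound [3H]rauwolscine (0.5 nM) was measured after equilibrium competition with test antagonists on lysates of LM(tk−) cells stably transfected with each human α2 subtype. Buffer: 25 mM glycylglycine, pH 7.6 at room temperature; 10 μM phentolamine gave nonspecific binding.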

α2A receptor = biological target: T2, α2A receptor (Homo sapiens, UniProt P08913); assay: Competition binding, [3H]rauwolscine, human α2A receptor
T2 construct: host or cells: LM(tk-) cells, line L-α2A
T2 sequence (P08913 1-465): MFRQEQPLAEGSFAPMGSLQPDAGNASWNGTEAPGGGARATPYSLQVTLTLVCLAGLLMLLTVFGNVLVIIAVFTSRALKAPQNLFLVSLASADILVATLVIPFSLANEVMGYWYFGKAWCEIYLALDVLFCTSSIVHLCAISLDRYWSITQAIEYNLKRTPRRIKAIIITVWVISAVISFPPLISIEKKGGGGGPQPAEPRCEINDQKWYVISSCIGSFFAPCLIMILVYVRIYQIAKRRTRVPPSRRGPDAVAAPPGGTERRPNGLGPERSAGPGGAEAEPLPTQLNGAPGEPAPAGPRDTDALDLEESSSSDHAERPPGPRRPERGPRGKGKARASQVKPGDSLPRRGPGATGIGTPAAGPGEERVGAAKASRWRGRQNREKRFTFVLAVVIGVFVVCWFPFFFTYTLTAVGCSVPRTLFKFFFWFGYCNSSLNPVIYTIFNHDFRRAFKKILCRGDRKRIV
Summary of the method: as §1

L-type calcium channel = biological target: T3, L-type calcium channel (Rattus norvegicus, UniProt P22002); assay: Competition binding of [3H]nitrendipine to membrane fragments of rat cardiac muscle
T3 construct: membrane fragments of rat cardiac muscle; from tissue; host or cells: rat cardiac muscle membranes
T3 sequence (P22002 whole entry, other chains not shown, the tested form may be a part): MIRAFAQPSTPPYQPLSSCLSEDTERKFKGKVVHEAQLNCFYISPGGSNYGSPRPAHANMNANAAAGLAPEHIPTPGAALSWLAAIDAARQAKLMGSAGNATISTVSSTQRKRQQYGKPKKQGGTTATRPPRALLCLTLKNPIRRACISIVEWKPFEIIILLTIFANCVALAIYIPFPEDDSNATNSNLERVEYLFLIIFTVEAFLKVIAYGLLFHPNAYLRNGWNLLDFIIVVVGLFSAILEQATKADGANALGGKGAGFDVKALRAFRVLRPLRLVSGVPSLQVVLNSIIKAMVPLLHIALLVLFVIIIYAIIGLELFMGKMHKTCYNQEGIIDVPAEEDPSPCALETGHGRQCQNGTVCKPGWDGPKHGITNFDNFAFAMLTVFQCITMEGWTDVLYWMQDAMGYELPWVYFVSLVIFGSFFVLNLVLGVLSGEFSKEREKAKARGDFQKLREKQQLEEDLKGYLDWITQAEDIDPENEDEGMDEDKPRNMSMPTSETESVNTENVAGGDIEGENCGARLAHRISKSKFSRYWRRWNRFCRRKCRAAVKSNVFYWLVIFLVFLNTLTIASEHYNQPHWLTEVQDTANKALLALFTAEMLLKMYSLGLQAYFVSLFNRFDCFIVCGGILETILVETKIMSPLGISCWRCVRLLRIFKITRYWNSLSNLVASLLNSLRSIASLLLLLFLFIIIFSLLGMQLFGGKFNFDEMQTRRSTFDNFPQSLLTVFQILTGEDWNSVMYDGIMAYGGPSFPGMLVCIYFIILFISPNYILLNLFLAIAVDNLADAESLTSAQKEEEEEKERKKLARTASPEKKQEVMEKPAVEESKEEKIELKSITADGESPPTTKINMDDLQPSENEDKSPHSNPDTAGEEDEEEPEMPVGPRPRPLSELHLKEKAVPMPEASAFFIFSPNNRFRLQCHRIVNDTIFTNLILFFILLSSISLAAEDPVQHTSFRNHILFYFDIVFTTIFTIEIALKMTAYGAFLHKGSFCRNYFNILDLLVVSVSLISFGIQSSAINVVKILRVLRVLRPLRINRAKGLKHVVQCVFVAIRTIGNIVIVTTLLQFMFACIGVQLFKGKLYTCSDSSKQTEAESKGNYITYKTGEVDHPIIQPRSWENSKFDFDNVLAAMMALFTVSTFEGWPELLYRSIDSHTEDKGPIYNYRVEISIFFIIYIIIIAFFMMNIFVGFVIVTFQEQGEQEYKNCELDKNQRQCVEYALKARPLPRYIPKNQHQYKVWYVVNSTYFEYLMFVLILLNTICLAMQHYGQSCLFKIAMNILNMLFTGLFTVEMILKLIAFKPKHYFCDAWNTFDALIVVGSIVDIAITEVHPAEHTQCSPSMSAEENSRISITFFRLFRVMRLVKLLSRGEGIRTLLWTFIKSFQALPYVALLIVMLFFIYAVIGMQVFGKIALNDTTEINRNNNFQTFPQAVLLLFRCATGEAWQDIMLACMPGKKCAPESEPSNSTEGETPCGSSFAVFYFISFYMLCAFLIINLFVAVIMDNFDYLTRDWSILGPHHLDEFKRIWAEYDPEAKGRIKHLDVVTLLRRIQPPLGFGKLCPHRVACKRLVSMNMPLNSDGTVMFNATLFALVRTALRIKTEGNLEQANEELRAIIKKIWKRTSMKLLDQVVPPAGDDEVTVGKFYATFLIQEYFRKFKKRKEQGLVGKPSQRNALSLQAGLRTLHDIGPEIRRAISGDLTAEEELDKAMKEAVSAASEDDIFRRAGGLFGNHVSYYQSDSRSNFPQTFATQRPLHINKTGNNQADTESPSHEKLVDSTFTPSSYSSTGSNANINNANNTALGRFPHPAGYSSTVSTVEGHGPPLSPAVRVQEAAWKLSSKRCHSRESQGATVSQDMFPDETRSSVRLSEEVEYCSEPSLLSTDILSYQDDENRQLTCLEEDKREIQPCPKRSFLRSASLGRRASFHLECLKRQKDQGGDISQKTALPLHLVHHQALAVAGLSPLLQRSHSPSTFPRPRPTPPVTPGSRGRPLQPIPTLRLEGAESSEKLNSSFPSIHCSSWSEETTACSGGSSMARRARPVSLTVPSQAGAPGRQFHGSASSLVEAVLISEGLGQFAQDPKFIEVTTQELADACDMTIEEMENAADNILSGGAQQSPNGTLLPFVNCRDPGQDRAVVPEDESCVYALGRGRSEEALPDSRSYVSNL
T3 sequence (P54290 25-944 partner limits assumed, other chains not shown): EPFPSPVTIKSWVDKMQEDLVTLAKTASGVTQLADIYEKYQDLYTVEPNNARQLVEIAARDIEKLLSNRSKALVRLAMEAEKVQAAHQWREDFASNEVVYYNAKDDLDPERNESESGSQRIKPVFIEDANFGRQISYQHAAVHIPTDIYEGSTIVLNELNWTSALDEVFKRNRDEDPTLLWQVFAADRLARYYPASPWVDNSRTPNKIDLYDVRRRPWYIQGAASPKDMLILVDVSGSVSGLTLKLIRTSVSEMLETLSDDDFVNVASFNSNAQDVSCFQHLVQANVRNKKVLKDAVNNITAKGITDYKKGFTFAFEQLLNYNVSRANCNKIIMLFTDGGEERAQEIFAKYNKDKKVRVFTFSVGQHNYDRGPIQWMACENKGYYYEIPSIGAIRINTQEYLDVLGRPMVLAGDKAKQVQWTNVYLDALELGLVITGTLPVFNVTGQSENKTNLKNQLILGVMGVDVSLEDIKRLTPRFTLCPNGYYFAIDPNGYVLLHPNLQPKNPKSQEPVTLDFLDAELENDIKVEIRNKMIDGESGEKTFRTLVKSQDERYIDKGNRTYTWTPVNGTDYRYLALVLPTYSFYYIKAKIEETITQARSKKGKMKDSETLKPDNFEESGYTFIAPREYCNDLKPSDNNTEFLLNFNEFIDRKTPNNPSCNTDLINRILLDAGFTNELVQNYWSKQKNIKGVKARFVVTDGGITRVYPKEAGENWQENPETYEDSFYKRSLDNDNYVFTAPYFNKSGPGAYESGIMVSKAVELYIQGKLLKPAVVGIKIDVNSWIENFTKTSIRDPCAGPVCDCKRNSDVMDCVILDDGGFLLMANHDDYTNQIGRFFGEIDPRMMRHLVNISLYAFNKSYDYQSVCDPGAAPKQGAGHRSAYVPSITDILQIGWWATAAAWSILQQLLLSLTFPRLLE
T3 sequence (P54290 945-1091 partner limits assumed, other chains not shown): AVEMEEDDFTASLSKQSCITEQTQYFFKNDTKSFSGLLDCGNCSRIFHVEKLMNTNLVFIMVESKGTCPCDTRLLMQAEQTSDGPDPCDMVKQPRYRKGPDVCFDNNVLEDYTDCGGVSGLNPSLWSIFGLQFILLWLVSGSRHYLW

[1] = biological target: T4, α1B Human Adrenergic Receptor (Homo sapiens, UniProt P35368); assay: Radioligand binding, [3H]prazosin, cloned human α1B adrenergic receptor
T4 construct: The entire coding region of α1B (1563 bp); expressed in transfected cells
T4 sequence (P35368 1-520): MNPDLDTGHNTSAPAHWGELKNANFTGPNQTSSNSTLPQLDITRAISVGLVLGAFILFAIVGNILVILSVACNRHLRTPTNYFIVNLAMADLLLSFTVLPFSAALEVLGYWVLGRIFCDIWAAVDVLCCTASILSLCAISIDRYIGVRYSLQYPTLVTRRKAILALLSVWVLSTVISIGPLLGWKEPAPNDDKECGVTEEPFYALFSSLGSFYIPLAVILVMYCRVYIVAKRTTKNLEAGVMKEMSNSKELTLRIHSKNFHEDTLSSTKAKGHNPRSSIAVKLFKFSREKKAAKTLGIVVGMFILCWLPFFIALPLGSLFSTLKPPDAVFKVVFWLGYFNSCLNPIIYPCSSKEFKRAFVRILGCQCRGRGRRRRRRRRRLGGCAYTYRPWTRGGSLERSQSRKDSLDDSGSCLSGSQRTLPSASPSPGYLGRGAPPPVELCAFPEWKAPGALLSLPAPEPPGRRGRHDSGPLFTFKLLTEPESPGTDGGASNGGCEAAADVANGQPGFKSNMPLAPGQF
Summary of the method: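 Membranes from stably transfected LM(tk−) cells, resuspended in 50 mM Tris-HCl, 1 mM MgCl2, 0.1% ascorbic acid, pH 7.5, were incubated with 0.5 nM [3H]prazosin for 20 min at 37° C. Nonspecific binding defined with 10 μM phentolamine; bound ligand separated by GF/B filtration.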

[2] = [3H]rauwolscine, human receptor, LM(tk-) cell lysates, mean, read-out: PKi alpha-2 2b (converted)
[3] = [3H]rauwolscine, human receptor, LM(tk-) cell lysates, mean, read-out: PKi alpha-2 2a (converted)
[4] = [3H]nitrendipine, rat cardiac muscle membranes, mean, read-out: PKi Ca (converted)
[5] = cloned human receptor, LM(tk-) cell membranes, mean, read-out: PKi alpha-1 1b (converted)
[6] = [3H]rauwolscine, LM(tk-) cell line L-NGC-α2B, SEM and n in lines below, read-out: pKi alpha-2 2b (converted)
[7] = [3H]rauwolscine, LM(tk-) cell line L-α2A, SEM and n in lines below, read-out: pKi alpha-2 2a (converted)
[8] = [3H]nitrendipine, rat cardiac muscle membranes, SEM and n in lines below, read-out: pKi Ca (converted)
[9] = cloned human receptor in LM(tk-) cell membranes, SEM and n in lines below, read-out: pKi alpha-1 1b (converted)

CCC1=C(C(N)=O)C(c2ccc([N+](=O)[O-])cc2)C(C(=O)NCCCN2CCC(c3ccccc3)CC2)=C(CC)N1 (stereo not drawn) [Example 121, 5-Carboxamido-2,6-diethyl-1,4-dihydro-4-(4-nitrophenyl)-3-{N-[3-(4-phenylpiperidin-1-yl)propyl]}carboxamidopyridine]
Ki (α2B receptor; [3H]rauwolscine, human α2B receptor, LM(tk−) cells, read-out: pKi alpha-2 2b (converted)): 0.257 µM
Ki (α2A receptor; [3H]rauwolscine, human α2A receptor, LM(tk−) cells, read-out: pKi alpha-2 2a (converted)): 0.363 µM
melting point: 90 to 101 °C
Ki (L-type calcium channel; [3H]nitrendipine, rat cardiac muscle membrane fragments, L-type calcium channel, read-out: pKi Ca (converted)): 16.6 µM
Ki ([1]; cloned human α1B receptor, LM(tk−) cell membranes, read-out: pKi alpha-1 1b (converted)): 0.0724 µM

CCC1=C(C(N)=O)C(c2ccc([N+](=O)[O-])cc2)C(C(=O)NCCCN2CCC(C(=O)OC)(c3ccccc3)CC2)=C(CCCCN)N1 (stereo not drawn) [Example 166, 2-(4-Aminobutyl)-5-carboxamido-6-ethyl-1,4-dihydro-3-{N-[3-(4-methoxycarbonyl-4-phenylpiperidin-1-yl)propyl]}carboxamido-4-(4-nitrophenyl)pyridine]
Ki (α2B receptor; [2]): 3.89 µM
Ki (α2A receptor; [3]): 1.86 µM
melting point: 75 to 78 °C
Ki (L-type calcium channel; [4]): 132 µM
Ki [1, 5]: 1.32 µM

CCC1=C(C(=O)OC)C(c2ccc([N+](=O)[O-])cc2)C(C(=O)NCCCN2CCC(C(=O)OC)(c3ccccc3)CC2)=C(COCCN)N1 (stereo not drawn) [Example 235, 2-((2-Aminoethyl)oxy)methyl-6-ethyl-1,4-dihydro-5-methoxycarbonyl-3-(N-(3-(4-methoxycarbonyl-4-phenylpiperidin-1-yl)propyl))carboxamido-4-(4-nitro)phenylpyridine]
Ki (α2B receptor; PKi alpha-2 2b): 2.95 µM
Ki (α2A receptor): 2.4 µM
melting point: 140 °C (dec.)
Ki (L-type calcium channel; PKi Ca): 166 µM
Ki [1, 5]: 0.219 µM

CCNC(=O)C1=C(CC)NC(CC)=C(C(=O)NCCCN2CCC(C(=O)OCC)(c3ccccc3)CC2)C1c1ccc([N+](=O)[O-])cc1 (stereo not drawn) [Example 182, 2,6-Diethyl-1,4-dihydro-3-{N-[3-(4-ethoxycarbonyl-4-phenylpiperidin-1-yl)propyl]}carboxamido-5-(N-ethyl)carboxamido-4(4-nitrophenyl)pyridine]
Ki (α2B receptor; PKi alpha-2 2b): 0.912 µM
Ki (α2A receptor): 2.19 µM
melting point: 103 to 104 °C
Ki (L-type calcium channel; PKi Ca): 355 µM
Ki [1, 5]: 1.12 µM

CC1=C(C(N)=O)C(c2ccc([N+](=O)[O-])cc2)C(C(=O)NCCCN2CCC(c3ccccc3)CC2)=C(C)N1 (stereo not drawn) [Example 60, 5-Carboxamido-1,4-dihydro-2,6-dimethyl-4-(4-nitrophenyl)-3-{N-[3-(4-phenylpiperidin-1-yl)propyl]}carboxamidopyridine]
Ki (α2B receptor; [6]): 0.0692 µM
Ki (α2A receptor; [7]): 0.0055 µM
melting point: 100 to 105 °C
Ki (L-type calcium channel; [8]): 158 µM
Ki [1, 9]: 0.0776 µM

CCC1=C(C(=O)NC)C(c2ccc([N+](=O)[O-])cc2)C(C(=O)NCCCN2CCC(C(=O)OC)(c3ccccc3)CC2)=C(COCCN)N1 (stereo not drawn) [Example 229, 2-((2-Aminoethyl)oxy)methyl-6-ethyl-1,4-dihydro-3-(N-(3-(4-methoxycarbonyl-4-phenylpiperidin-1-yl)propyl))carbo xamido-5-N-methylcarboxamido-4-(4-nitro)phenylpyridine]
Ki (α2B receptor; [2]): 5.37 µM
Ki (α2A receptor; [3]): 3.02 µM
melting point: 95 °C (dec.)
Ki (L-type calcium channel; [4]): 100 µM
Ki [1, 5]: 1.38 µM

COC(=O)C1=C(C)NC(C)=C(C(=O)NCCCN2CCC(c3ccccc3)CC2)C1c1ccc(Cl)c([N+](=O)[O-])c1 (stereo not drawn) [Example 17, 4-(4-Chloro-3-nitrophenyl)-1,4-dihydro-3-methoxycarbonyl-2,6-dimethyl-5-(N-(3-(4-phenylpiperidin-1-yl)propyl)carboxamido)pyridine]
Ki (α2B receptor; [6]): 0.141 µM
Ki (α2A receptor; [7]): 0.347 µM
melting point: 191 to 192 °C
Ki (L-type calcium channel; [8]): 10 µM
Ki [1, 9]: 0.0417 µM

COC(=O)C1=C(C)NC(C)=C(C(=O)NCCCN2CCC(c3ccccc3)CC2)C1c1cccc([N+](=O)[O-])c1 (stereo not drawn) [Example 30, 1,4-Dihydro-3-methoxycarbonyl-2,6-dimethyl-4-(3-nitrophenyl)-5-(N-(3-(4-phenylpiperidin-1-yl)propyl)carboxamido)pyridine]
Ki (α2B receptor; [6]): 0.234 µM
Ki (α2A receptor; [7]): 0.117 µM
melting point: 78 to 80 °C
Ki (L-type calcium channel; [8]): 0.0955 µM
Ki [1, 9]: 0.0537 µM

COC(=O)C1=C(C)NC(C)=C(C(=O)NCCCN2CCC(c3ccccc3)(c3ccccc3)CC2)C1c1cccc([N+](=O)[O-])c1 (stereo not drawn) [Example 249, 1,4-Dihydro-3-methoxycarbonyl-2,6-dimethyl-4-(3-nitrophenyl)-5-(N-(3-(4,4-diphenylpiperidin-1-yl)propyl)carboxamido)-pyridine]
PKi alpha-2 2b (α2B receptor): 5.91
PKi alpha-2 2a (α2A receptor): 5.81
melting point: 192 to 193 °C
Ki (L-type calcium channel; PKi Ca): 0.0309 µM
PKi alpha-1 1b ([1]; cloned human α1B receptor, LM(tk-) cell membranes): 6.63

CCC1=C(C(N)=O)C(c2ccc([N+](=O)[O-])cc2)C(C(=O)NCCCN2CCC(c3ccccc3)(c3ccccc3)CC2)=C(CCCCN)N1 (stereo not drawn) [Example 171, 2-(4-Aminobutyl)-5-carboxamido-6-ethyl-1,4-dihydro-4-(4-nitrophenyl)-3-{N-[3-(4,4-diphenylpiperidin-1-yl)propyl]}carboxamidopyridine]
Ki (α2B receptor; PKi alpha-2 2b, [3H]rauwolscine, human receptor, LM(tk-) cell lysates, mean): 2 µM
Ki (α2A receptor; [3]): 1.1 µM
melting point: 85 to 89 °C
Ki (L-type calcium channel; [4]): 18.6 µM
Ki ([1]; PKi alpha-1 1b, cloned human receptor, LM(tk-) cell membranes, mean): 0.617 µM

CCOC(=O)C1(c2ccccc2)CCN(CCCNC(=O)C2=C(COCCN)NC(CC)=C(C(=O)OC)C2c2ccc([N+](=O)[O-])cc2)CC1 (stereo not drawn) [Example 197, 2-[(2-Aminoethoxy)methyl]-3-{N-[3-(4-ethoxycarbonyl-4-phenylpiperidin-1-yl)propyl]}carboxamido-1,4-dihydro-6-ethyl-5-methoxycarbonyl-4-(4-nitrophenyl) pyridine]
Ki (α2B receptor; PKi alpha-2 2b): 2.34 µM
Ki (α2A receptor): 1.48 µM
melting point: 45 to 47 °C
Ki (L-type calcium channel; PKi Ca): 6.31 µM
Ki [1, 5]: 0.148 µM

COC(=O)C1=C(C)NC(C)=C(C(=O)NCCCN2CCC(c3ccccc3)CC2)C1c1ccc2c(c1)OCO2 (stereo not drawn) [Example 250]
Ki (α2B receptor; [3H]rauwolscine, human α2B receptor, LM(tk-) cells, read-out: PKi alpha-2 2b (converted)): 0.0398 µM
Ki (α2A receptor; [3H]rauwolscine, human α2A receptor, LM(tk-) cells, read-out: PKi alpha-2 2a (converted)): 0.123 µM
melting point: 161 to 165 °C
Ki (L-type calcium channel; [3H]nitrendipine, rat cardiac muscle membranes, L-type calcium channel, read-out: PKi Ca (converted)): 13.2 µM
Ki ([1]; cloned human α1B receptor, LM(tk-) cell membranes, read-out: PKi alpha-1 1b (converted)): 0.0692 µM

Source: patent US6608086B2, “Dihydropyridines and new uses thereof” (Synaptic Pharmaceutical Corporation, priority 1993, dated 2003)
